Measurements reported in PubChem BioAssay AID330 (DTP/NCI, 2004).
“And” between values parts separate entries of the source, which are not always exact repeats. Equal values may be shown once. Inconclusive results and toxic doses are left out.

Test system: P388 leukemia ip, CD2F1 mice, survival T/C
Assay: NCI In Vivo Anticancer Drug Screen. Data for tumor model P388 Leukemia (intraperitoneal) in CD2F1 (CDF1) mice
Conditions: endpoint: median survival time, higher = longer survival
Outline: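 Mice carrying the transplanted tumor received test compound or vehicle. Survival was recorded in each group, and the value is the treated-group measurement divided by that of the vehicle-treated control group.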

[1] = dose: 50.0 mg/kg/injection, schedule: Q01DX005 (ip), vehicle: Klucel (hydroxypropylcellulose) (HPC)
[2] = dose: 100.0 mg/kg/injection, schedule: Q01DX005 (ip), vehicle: Klucel (hydroxypropylcellulose) (HPC)
[3] = dose: 200.0 mg/kg/injection, schedule: Q01DX005 (ip), vehicle: Klucel (hydroxypropylcellulose) (HPC)
[4] = dose: 100.0 mg/kg/injection, schedule: Q04DX003 (ip), vehicle: saline
[5] = dose: 200.0 mg/kg/injection, schedule: Q04DX003 (ip), vehicle: saline
[6] = dose: 60.0 mg/kg/injection, schedule: Q01DX005 (ip), vehicle: saline with Tween-80
[7] = dose: 120.0 mg/kg/injection, schedule: Q01DX005 (ip), vehicle: saline with Tween-80

Cc1cc2c(cc1C)-c1c(oc3cc(C)c(C)cc13)-c1ccccc1C(=O)O2
T/C (dose: 50.0 mg/kg/injection, schedule: Q01DX009 (ip), vehicle: saline with Tween-80): 94 % of control
T/C (dose: 100.0 mg/kg/injection, schedule: Q01DX009 (ip), vehicle: saline with Tween-80): 97 % of control
T/C (dose: 200.0 mg/kg/injection, schedule: Q01DX009 (ip), vehicle: saline with Tween-80): 97 % of control

Nc1ccccc1NC(=O)c1nc2ccccc2[nH]1
T/C (dose: 100.0 mg/kg/injection, schedule: Q04DX003 (ip), vehicle: Klucel (hydroxypropylcellulose) (HPC)): 106 % of control
T/C (dose: 200.0 mg/kg/injection, schedule: Q04DX003 (ip), vehicle: Klucel (hydroxypropylcellulose) (HPC)): 97 % of control
T/C (dose: 400.0 mg/kg/injection, schedule: Q04DX003 (ip), vehicle: Klucel (hydroxypropylcellulose) (HPC)): 97 % of control

Cc1cc(Nc2ccc3c(c2)OCO3)c2cc3c(cc2n1)OCO3
T/C [1]: 105 % of control and 107 % of control
T/C [2]: 116 % of control
T/C [3]: 165 % of control and 178 % of control

COC(=O)COc1cc2c(cc1C(C)c1ccc(OCc3ccccc3)cc1)OCO2 (configuration not stated)
T/C (dose: 50.0 mg/kg/injection, schedule: Q01DX005 (ip), vehicle: distilled water + Tween-80): 89 % of control
T/C (dose: 100.0 mg/kg/injection, schedule: Q01DX005 (ip), vehicle: distilled water + Tween-80): 99 % of control
T/C (dose: 200.0 mg/kg/injection, schedule: Q01DX005 (ip), vehicle: distilled water + Tween-80): 106 % of control and 88 % of control

CC(CCc1ccc2c(c1)OCO2)NCC(O)c1ccc(O)c(C(N)=O)c1 (configuration not stated)
T/C (dose: 50.0 mg/kg/injection, schedule: Q01DX009 (ip), vehicle: Klucel (hydroxypropylcellulose) (HPC)): 93 % of control
T/C (dose: 100.0 mg/kg/injection, schedule: Q01DX009 (ip), vehicle: Klucel (hydroxypropylcellulose) (HPC)): 94 % of control
T/C (dose: 200.0 mg/kg/injection, schedule: Q01DX009 (ip), vehicle: Klucel (hydroxypropylcellulose) (HPC)): 100 % of control

COc1ccc2nc3cc(Cl)ccc3c(NCCC3CCCN4CCCCC34)c2c1 (configuration not stated)
T/C (dose: 12.5 mg/kg/injection, schedule: Q01DX005 (ip), vehicle: distilled water + Tween-80): 109 % of control
T/C (dose: 25.0 mg/kg/injection, schedule: Q01DX005 (ip), vehicle: distilled water + Tween-80): 114 % of control

CC1(c2ccco2)NC(=O)N(Cl)C1=O (configuration not stated)
T/C [4]: 104 % of control
T/C [5]: 90 % of control

c1ccc(-[n+]2ccc(-c3cc[n+](-c4ccccc4)cc3)cc2)cc1
T/C (dose: 100.0 mg/kg/injection, schedule: Q04DX002 (ip), vehicle: Klucel (hydroxypropylcellulose) (HPC)): 97 % of control

Cc1cc(C)c2c(c1)CC(C)(C)C(=O)OC2=O
T/C [6]: 107 % of control
T/C [7]: 101 % of control

CC1=CC(C)(C)N=C(N)N1
T/C (dose: 12.5 mg/kg/injection, schedule: Q01DX005 (ip), vehicle: saline): 98 % of control
T/C (dose: 25.0 mg/kg/injection, schedule: Q01DX005 (ip), vehicle: saline): 97 % of control
T/C (dose: 50.0 mg/kg/injection, schedule: Q01DX005 (ip), vehicle: saline): 105 % of control and 91 % of control

CC(=O)c1ccc(N=C(C#N)C2=C(O)c3ccccc3C2=O)cc1
T/C [6]: 115 % of control
T/C [7]: 120 % of control

Cc1cnc(C)n2ncnc12
T/C [4]: 93 % of control
T/C [5]: 95 % of control
T/C (dose: 400.0 mg/kg/injection, schedule: Q04DX003 (ip), vehicle: saline): 88 % of control

S=[As]1(c2cccc3ccccc23)c2ccccc2-c2ccccc21
T/C (dose: 30.0 mg/kg/injection, schedule: Q01DX009 (ip), vehicle: saline with Tween-80): 106 % of control
T/C (dose: 60.0 mg/kg/injection, schedule: Q01DX009 (ip), vehicle: saline with Tween-80): 100 % of control
T/C (dose: 120.0 mg/kg/injection, schedule: Q01DX009 (ip), vehicle: saline with Tween-80): 110 % of control

COc1ccc2c3c(c(=O)n(C)c2c1OC)C=CC(C)(C)O3
T/C (dose: 25.0 mg/kg/injection, schedule: Q01DX005 (ip), vehicle: Klucel (hydroxypropylcellulose) (HPC)): 94 % of control
T/C [1]: 100 % of control
T/C [2]: 100 % of control
T/C [3]: 88 % of control

CCOP(=O)(CC1OCC2(CO1)COC(CP(=O)(OCC)OCC)OC2)OCC (configuration not stated)
T/C (dose: 12.5 mg/kg/injection, schedule: Q01DX009 (ip), vehicle: saline): 87 % of control
T/C (dose: 25.0 mg/kg/injection, schedule: Q01DX009 (ip), vehicle: saline): 94 % of control
T/C (dose: 50.0 mg/kg/injection, schedule: Q01DX009 (ip), vehicle: saline): 101 % of control and 92 % of control
T/C (dose: 100.0 mg/kg/injection, schedule: Q01DX009 (ip), vehicle: saline): 106 % of control
T/C (dose: 200.0 mg/kg/injection, schedule: Q01DX009 (ip), vehicle: saline): 100 % of control
